Laboratory results published in patent publication US20020013264A1, “Neoglycan anticancer agents and uses thereof” (priority 1999, published 2002).

Tests used:
[1] = test system: MDA-MB-231 cells; test: Apoptosis by Annexin V-FITC staining and PI exclusion, MDA-MB-231; format: cell-based, human; settings: discussion summary of Annexin V and TUNEL results
Method: (§1) ARP-1 cells and MDA-MB-231 cells were treated with media only, 32 μg/ml GAG chains and 32 μg/ml neoglycans. The ARP-1 cells were harvested following a 48 hour incubation period and the MDA-MB-231 cells were harvested after a 96 hour incubation period. The induction of apoptosis was determined by staining with fluorescein isothiocyanated-labeled Annexin V (Annexin V-FITC, CALTAG Laboratories, Burlingame, Calif.) following the manufacturer's instructions. Just prior to analysis, 0.5 mg/ml propidium iodide (PI, Sigma, St Louis, Mo.) in PBS, pH. 7.4 was added. Flow cytometry was performed with a Beckman Dickenson (Mountain View, Calif.) FACScan using Cellquest 1.2 software. Annexin V-FITC positive, PI negative cells were considered apoptotic.
(§2) Annexin-V binds to phosphatidylserine which is on the inner cytoplasmic membrane of healthy cells and on the outer cytoplasmic membrane of apoptotic cells .

[2] = test system: multiple myeloma cell line; test: Viability of a multiple myeloma cell line treated with nPG, EDAC modified GAG chains or native GAG chains; format: cell-based; settings: data not shown
Text: Synthetic proteoglycans termed neoproteoglycans (nPG), were produced by EDAC conjugation of the GAG chains heparin or chondroitin sulfate and a protein scaffold. Treatment of a multiple myeloma cell line with either nPG preparation or controls produced by EDAC modification of GAG chains alone reduced cell viability (data not shown). […] Therefore, neoglycans (neoglycans) consisting of EDAC modified heparin (neoheparin) or chondroitin sulfate (neoCS, neoCS) were produced and evaluated for potential anticancer activities.

[3] = test system: ARP-1 cells; test: Apoptosis by Annexin V-FITC staining and PI exclusion, ARP-1; format: cell-based, human; settings: discussion summary of Annexin V and TUNEL results
Method: as §1, §2

[4] = test system: MDA-MB-231 breast cancer tumors; test: Treatment of established MDA-MB-231 tumors in nude mice; format: in vivo; settings: single 1.6 mg dose injected into the tumor followed by electroporation
Method: BALB/c nu/nu mice were anesthetized by intraperitoneal administration of a mixture of ketamine (42.8 mg/ml), xylazine (8.6 mg/ml), and acepromazine (1.4 mg/ml) at a dose of 1.8-2.0 ml/kg. Human breast cancer tumors were established following subcutaneous injection of 2×10^6 MDA-MB-231 cells in PBS. Two tumors were established on each mouse. Tumors were injected with a single 1.6 mg dose of chondroitin sulfate or chondroitin sulfate neoglycan in a 50 μl total volume. Immediately following injection, a caliper electrode was positioned on t wo sides of the tumor with contact on the skin. An electrical pulse was applied to the tumor through the electrodes with a BTS EC830 power supply (Genetronics, Inc., San Diego, Calif.). The tumors were measured with calipers and tumor volumes calculated according to the equation: V=(L×W2)×0.5. The results reflect two separate experiments in which one tumor was treated with chondroitin sulfate and the second tumor on the same animal was treated with neoCS. Both experiments included 7 tumors per treatment group.
Therefore, chondroitin sulfate neoglycan was used for evaluation of in vivo neoglycan activity. […] Two tumors per animal developed and were measured just prior to treatment. […] The size of each tumor was determined 48 hours later and at several subsequent time points.

[5] = test system: ARP-1 multiple myeloma cell line; test: MTT cell viability assay, ARP-1 cells; format: cell-based, human; settings: 500 μg/ml (FIG. 1 legend), 72 hours
Text: ARK, ARP-1, and CAG cells are B lymphoid cell lines established at the Arkansas Cancer Research Center from bone marrow aspirates of multiple myeloma patients (Ridley, Xiao et al. 1993). U266 is a multiple myeloma cell line that was obtained from the American Type Culture Collection (ATCC, Manassas, Va.). ARH-77 cells (ATCC, Manassas, Va.) were established from the peripheral blood of a patient with plasma cell leukemia (Burk, Drewinko et al. 1978). Peripheral blood mononuclear cells (PBMCs) were collected from healthy donors by Ficol-Hypaque separation of whole blood and were mitogen activated for 3 days with 2.5 μg/ml PHA (Sigma, St Louis, Mo.) prior to neoglycan treatment. The cell lines and peripheral blood mononuclear cells were grown in RPMI 1640 supplemented with 10% fetal bovine serum, 2 mM L-glutamine, 1 00 U/ml penicillin and 100 μg/ml streptomycin sulfate. […]
Cells were plated in the appropriate media on 96-well plates in a 100 μl total volume. […] Cell viability was determined based mitochondrial conversion of 3[4,5-Dimethylthiazol-2-yl]-2,5-diphenyltetrazolium bromide (MTT, Sigma, St Louis, Mo.) to formazan. […] The plates were gently agitated until the color reaction was uniform and the OD540 was determined using a microplate reader. […]

Substance	induction of apoptosis in MDA-MB-231 cell line (FIG. 2) [1]	effect on multiple myeloma cell viability / growth [2]	induction of apoptosis in ARP-1 cell line (FIG. 2) [3]	effect on established MDA-MB-231 tumors / tumor burden [4]	effect of native GAG chains on cell proliferation [5]
chondroitin sulfate	do not induce apoptosis	no growth reducing affect	do not induce apoptosis	does not reduce the tumor burden	no affect
heparin	do not induce apoptosis	no growth reducing affect	do not induce apoptosis		slightly enhances cell proliferation
